In article PMC6150025, “Novel Mixed-Type Inhibitors of Protein Tyrosine Phosphatase 1B. Kinetic and Computational Studies” (Molecules : A Journal of Synthetic Chemistry and Natural …, 2017):

Molecular target: T1, PTP1B (Homo sapiens, UniProt P18031)
T1 construct: encodes for PTP1B (residues 1–321); inferred from the pET28A vector, NdeI/BamHI cloning and Ni-agarose purification) (N); made in house; host or cells: E. coli BLR
T1 sequence (P18031 1-321): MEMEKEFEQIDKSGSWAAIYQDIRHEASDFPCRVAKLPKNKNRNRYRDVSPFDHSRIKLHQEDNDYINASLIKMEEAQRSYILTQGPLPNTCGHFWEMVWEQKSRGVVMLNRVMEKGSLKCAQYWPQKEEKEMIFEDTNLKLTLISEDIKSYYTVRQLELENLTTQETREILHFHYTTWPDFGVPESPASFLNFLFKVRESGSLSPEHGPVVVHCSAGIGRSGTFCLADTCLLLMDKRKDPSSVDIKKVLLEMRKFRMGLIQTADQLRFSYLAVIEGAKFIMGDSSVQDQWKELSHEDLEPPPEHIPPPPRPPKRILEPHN
Test: PTP1B enzymatic inhibition assay (pNPP substrate)
Type: biochemical
Details: for % Inhibition: Table S1, values marked a: tested at 100 µM due to solubility problems; for Ki: Lineweaver-Burk analysis, mixed type model; for Inhibition Type: Lineweaver-Burk plots; for IC50: curves at different concentration of each compound; for Vmax / Km: from fit of the kinetic data for each inhibitor; for α: mixed type inhibition model; for Km: pNPP
Procedure: The PTP1B activity was measured based on the Goldstein method. The assay was performed with a final reaction volume of 500 µL in HEPES buffer (50 mM HEPES, 1mM DTT, 2 mM EDTA and 150 mM NaCl, pH 7.0), DMSO (10%) and p-nitrophenol phosphate (pNPP) as substrate (50 mM), the reaction was started with the PTP1B (1.5 µg/mL). After 30 min of incubation at 37 °C, the reaction was stopped by the addition of 500 µL of NaOH 5N reading the absorbance at 405 nm. The number of hydrolyzed moles of pNPP was determined using the molar extinction coefficient of the product pNP (18,500 M^−1 cm^−1).
Inhibition assays were performed under the above described conditions, adding to the reaction each one of the molecules at a final concentration of 200 µM. The concentration that inhibits 50% (IC50) of the PTP1B activity was determined through curves at different concentration of each compound, adjusting the data to the equation reported elsewhere. The inhibition type and constant were obtained by the measurement of the initial velocities of hydrolysis varying the substrate concentration in a range of 2–30 µM, in absence or presence of fixed concentrations of each inhibitor. For compound 1 the concentrations used were 3, 6, 10 and 20 µM; in the case of compound 2 were 2, 4, 6, 8, and 10 µM; and for compound 3 were 20, 50, 70 and 90 µM. The experimental data were analyzed through the Lineweaver-Burk plot using the software Sigma Plot V12.3 (Systat Software, Inc., San Jose, CA, USA).

[1] = 200 µM compound, pNPP 50 mM, 30 min, 37 °C

With `CSc1nc2cc(C(=O)O)ccc2n1C` [1-methyl-2-(methylsulfanyl)-1H-benzimidazole-5-carboxylic acid] the “% Inhibition (200 µM)” value (Table S1, 200 µM compound) was 33%.
With `CSc1nc2cc(C(=O)N/N=C/c3ccc([N+](=O)[O-])o3)ccc2n1C` [1-methyl-2-(methylsulfanyl)-N'-[(E)-(5-nitrofuran-2-yl)methylidene]-1H-benzimidazole-5-carbohydrazide] the “% Inhibition (200 µM)” value (Table S1, 200 µM compound) was 34%.
In the case of `CSc1nc2cc(C(=O)N/N=C/c3ccc([N+](=O)[O-])o3)ccc2[nH]1` [2-(methylsulfanyl)-N'-[(E)-(5-nitrofuran-2-yl)methylidene]-1H-benzimidazole-5-carbohydrazide], the “% Inhibition” value is reported as 50%.
In the case of `O=C(CSc1nnc(-c2cc(OCC(F)(F)F)ccc2OCC(F)(F)F)o1)c1ccccc1` [2-({5-[2,5-di(2,2,2-trifluoroethoxy)phenyl]-1,3,4-oxadiazol-2-yl}thio)-1-phenylethan-1-one], the “% Inhibition (200 µM)” value (Table S1, 200 µM compound) is reported as 64%.
`Cn1c(SCC(=O)Nc2nccs2)nc2cc(Cl)c(Oc3cccc4ccccc34)cc21` [2-({5-chloro-1-methyl-6-[(naphthalen-1-yl)oxy]-1H-benzimidazol-2-yl}sulfanyl)-N-(1,3-thiazol-2-yl)acetamide] was tested, and the “% Inhibition” value was 63%.
In the case of `Cn1c(SCC(=O)Nc2nccs2)nc2cc(Oc3cccc4ccccc34)c(Cl)cc21` [2-({6-chloro-1-methyl-5-[(naphthalen-1-yl)oxy]-1H-benzimidazol-2-yl}sulfanyl)-N-(1,3-thiazol-2-yl)acetamide], the “% Inhibition (200 µM)” value (Table S1, 200 µM compound) is reported as 54%.
`O=C(CSc1nc2cc(Oc3cccc4ccccc34)c(Cl)cc2[nH]1)Nc1ncc([N+](=O)[O-])s1` [2-({6-chloro-5-[(naphthalen-1-yl)oxy]-1H-benzimidazol-2-yl}sulfanyl)-N-(5-nitro-1,3-thiazol-2-yl)acetamide] was tested, and the “% Inhibition (200 µM)” value (Table S1, 200 µM compound) was 63%.
For `O=C(O)c1csc(-c2ccc(C(F)(F)F)cc2)n1` [2-[4-(trifluoromethyl)phenyl]-1,3-thiazole-4-carboxylic acid], the “% Inhibition (200 µM)” value (Table S1, 200 µM compound) was 34%.
With `N#Cc1ccc(-c2c(NC(=O)NS(=O)(=O)c3ccccc3Cl)oc(-c3ccco3)c2C#N)cc1` [2-[({[(2-chlorophenyl)sulphonyl]amino}carbonyl)amino]-4-cyano-3-(4-cyanophenyl)-5-(2-furyl)furan] the “% Inhibition (200 µM)” value (Table S1, 200 µM compound) was 64%.
With `Cc1nc2cc(C(=O)N/N=C/c3ccc([N+](=O)[O-])o3)ccc2[nH]1` [2-methyl-N'-[(E)-(5-nitrofuran-2-yl)methylidene]-1H-benzimidazole-5-carbohydrazide] the “% Inhibition” value was 54%.
For `O=C(O)c1ccccc1N1CCOCC1` [2-morpholinobenzoic acid], the inhibition at 200 µM (Table S1, 200 µM compound) was 37%.
`O=C(Nc1ccc(COc2ccccc2)cc1)Oc1ccccc1N1CCOCC1` [2-morpholinophenyl N-[4-(phenoxymethyl)phenyl]carbamate] was tested, and the “% Inhibition (200 µM)” value (Table S1, 200 µM compound) was 63%.
`CC1C(=NO)CC(c2ccc([N+](=O)[O-])cc2)NC1c1ccc([N+](=O)[O-])cc1` (stereo not shown) [3-methyl-2,6-bis(4-nitrophenyl)tetrahydropyridin-4(1H)-one oxime] was tested, and the “% Inhibition (200 µM)” value (Table S1, 200 µM compound) was 54%.
With `Cc1ccc(S(=O)(=O)CCSc2n[nH]c(=O)n2-c2ccc(OCc3ccccc3)cc2)cc1` [4-[4-(benzyloxy)phenyl]-5-({2-[(4-methylphenyl)sulfonyl]ethyl}sulfanyl)-2,4-dihydro-3H-1,2,4-triazol-3-one] the “% Inhibition (200 µM)” value (Table S1, 200 µM compound) was 42%.
For `O=C(O)C=CC(=O)Nc1ccc(N2CCCCCC2)c(NC(=O)C=CC(=O)O)c1` [4-{2-(1-azepanyl)-5-[(4-hydroxy-4-oxo-2-butenoyl)amino]anilino}-4-oxo-2-butenoic acid], the “% Inhibition (200 µM)” value (Table S1, 200 µM compound) was 58%.
For `Cn1c(SCCn2ccnc2)nc2cc(Cl)ccc21` [5-chloro-2-{[2-(1H-imidazol-1-yl)ethyl]sulfanyl}-1-methyl-1H-benzimidazole], the “% Inhibition (200 µM)” value (Table S1, 200 µM compound) was 42%.
With `COc1cc(C(CC(=O)O)CC(=O)N2CCC(n3cccc3)CC2)cc(OC)c1OC` (stereo not shown) [5-oxo-5-[4-(1H-pyrrol-1-yl)piperidino]-3-(3,4,5-trimethoxyphenyl)pentanoic acid] the “% Inhibition (200 µM)” value (Table S1, 200 µM compound) was 38%.
`O=C(O)c1ccc2[nH]c3c(c2c1)CCCC3` [6,7,8,9-Tetrahydro-5h-carbazole-3-carboxylic acid] was tested, and the “% Inhibition (200 µM)” value (Table S1, 200 µM compound) was 32%.
With `Cn1c(SCCn2ccnc2)nc2ccc(Cl)cc21` [6-chloro-2-{[2-(1H-imidazol-1-yl)ethyl]sulfanyl}-1-methyl-1H-benzimidazole] the “% Inhibition (200 µM)” value (Table S1, 200 µM compound) was 32%.
In the case of `O=C1COc2cc(O)ccc21` [6-hydroxy-2,3-dihydrobenzo[b]furan-3-one], the “% Inhibition (200 µM)” value (Table S1, 200 µM compound) is reported as 37%.
`OCc1ccccc1N1CCOCC1` [(2-morpholinophenyl)methanol] showed an inhibition at 200 µM (Table S1, 200 µM compound) of 44%.
`CSc1nc2cc(Cl)c(C(=O)Nc3nc4cc(Oc5cccc(Cl)c5Cl)c(Cl)cc4[nH]3)cc2n1C` [Compound 1, 5-Chloro-N-[6-chloro-5-(2,3-dichlorophenoxy)-1H-benzimidazol-2-yl]-1-methyl-2-(methylthio)-1H-benz-imidazole-6-carboxamide] was tested, and the inhibition at 200 µM [1] was 100%, the Ki was 5.2 µM and the “Inhibition Type” value was “Mixed”. It also gave an IC50 of 7.5 µM, a Vmax of 8.8 µmol/min/mg and a α of 1.4. For the same molecule, the Km was 6.7 mM.
In the case of `O=C(CSc1nc2cc(Oc3cccc4ccccc34)c(Cl)cc2[nH]1)Nc1nccs1` [Compound 2, 2-[6-Chloro-5-(1-naphthalyloxy)-1H-benzimidazol-2-yl]thio-N-(thiazol-2-yl)acetamide], the inhibition at 200 µM [1] is reported as 99%, the Ki is reported as 4.2 µM and the “Inhibition Type” value is reported as “Mixed”. For the same molecule, the IC50 was 8.4 µM, the Vmax was 16 µmol/min/mg and the α was 2.9. The Km was 6.8 mM.
For `O=C(Nc1nc2cc(Oc3cccc(Cl)c3Cl)c(Cl)cc2[nH]1)C(F)(F)F` [Compound 3, N-[6-Chloro-5-(2,3-dichlorophenoxy)-1H-benzimidazol-2-yl]-2,2,2-trifluoroacetamide], the inhibition at 200 µM [1] was 92%, the Ki was 41.3 µM and the “Inhibition Type” value was “Mixed”. For the same molecule, the IC50 was 31.3 µM, the Vmax was 10 µmol/min/mg and the α was 3.3. The Km was 4.1 mM.
`O=C(CSc1nnnn1-c1ccc(O)cc1)c1ccc2c(c1)OCO2` [Compound 4, 1-(1,3-benzodioxol-5-yl)-2-{[1-(4-hydroxyphenyl)-1H-1,2,3,4-tetraazol-5-yl]sulfanyl}-1-ethanone] showed an inhibition at 200 µM [1] of 88%.
Work on `CN(C)S(=O)(=O)Oc1ccc(-c2noc(-c3ccc(Oc4cc(Cl)cc(Cl)c4)o3)n2)cc1` [Compound 5, 4-{5-[5-(3,5-dichlorophenoxy)-2-furyl]-1,2,4-oxadiazol-3-yl}phenyl-N,N-dimethylsulfamate] yielded an inhibition at 200 µM [1] of 85%.
`CCCc1cc(=O)oc2cc(OC(C)C(=O)NNS(=O)(=O)c3cccc(C(F)(F)F)c3)ccc12` (stereo not shown) [Compound 6, N′1-{2-[(2-oxo-4-propyl-2H-chromen-7-yl)oxy]propanoyl}-3-(trifluoromethyl)benzene-1-sulfonohydrazide] showed an inhibition at 200 µM [1] of 84%.
In the case of `COc1cc2nc(SCC(=O)Nc3ccc(F)c(Cl)c3)n(-c3ccccc3)c(=O)c2cc1OC` [Compound 7, N-(3-chloro-4-fluorophenyl)-2-[(6,7-dimethoxy-4-oxo-3-phenyl-3,4-dihydro-2-quinazolinyl)sulfanyl]acetamide], the inhibition at 200 µM [1] is reported as 80%.
`CCCCCc1ccc(S(=O)(=O)Nc2ncccc2OCc2cc(F)cc(F)c2)cc1` [Compound 8, N-{3-[(3,5-difluorobenzyl)oxy]pyridin-2-yl}-4-pentylbenzenesulfonamide] showed an inhibition at 200 µM [1] of 74% and an inhibition at 200 µM (Table S1, 200 µM compound) of 64%.
`C[S+]([O-])c1nc2cc(Cl)c(Oc3cccc4ccccc34)cc2[nH]1` (stereo not shown) [Compound 10] showed an inhibition at 200 µM [1] of 65%.
With `Cc1cc(-c2nn(C)c(=O)c3ccccc23)cc(C)c1OCC(=O)NNC(=O)Nc1ccccc1` [N1-phenyl-2-{2-[2,6-dimethyl-4-(3-methyl-4-oxo-3,4-dihydrophthalazin-1-yl)phenoxy]acetyl}hydrazine-1-carboxamide] the “% Inhibition (200 µM)” value (Table S1, 200 µM compound) was 52%.
With `COc1cc(C=NNC(=O)CSCc2c(C)c(C)c(C)c(C)c2C)cc(OC)c1OC` [N'1-(3,4,5-trimethoxybenzylidene)-2-[(2,3,4,5,6-pentamethylbenzyl)thio]ethanohydrazide] the “% Inhibition (200 µM)” value (Table S1, 200 µM compound) was 63%.
`O=C(NNS(=O)(=O)c1cc(C(F)(F)F)cc(C(F)(F)F)c1)c1cnn(-c2ccccc2)c1C(F)(F)F` [N'1-{[1-phenyl-5-(trifluoromethyl)-1H-pyrazol-4-yl]carbonyl}-3,5-di(trifluoromethyl)benzene-1-sulfonohydrazide] was tested, and the “% Inhibition (200 µM)” value (Table S1, 200 µM compound) was 45%.
